Among the data in ChEMBL document CHEMBL2073946, “Role of organic anion transporter OATP1B1 (OATP-C) in hepatic uptake of irinotecan and its active metabolite, 7-ethyl-10-hydroxycamptothecin: in vitro evidence and effect of single nucleotide polymorphisms” (Drug Metab Dispos, 2005) are Activity values, retold here.

Common to all, as to format: functional, cell-based
Series [1] concerns the target T1, Solute carrier organic anion transporter family member 1B1 (Homo sapiens, UniProt Q9Y6L6).
T1 sequence (Q9Y6L6 whole entry): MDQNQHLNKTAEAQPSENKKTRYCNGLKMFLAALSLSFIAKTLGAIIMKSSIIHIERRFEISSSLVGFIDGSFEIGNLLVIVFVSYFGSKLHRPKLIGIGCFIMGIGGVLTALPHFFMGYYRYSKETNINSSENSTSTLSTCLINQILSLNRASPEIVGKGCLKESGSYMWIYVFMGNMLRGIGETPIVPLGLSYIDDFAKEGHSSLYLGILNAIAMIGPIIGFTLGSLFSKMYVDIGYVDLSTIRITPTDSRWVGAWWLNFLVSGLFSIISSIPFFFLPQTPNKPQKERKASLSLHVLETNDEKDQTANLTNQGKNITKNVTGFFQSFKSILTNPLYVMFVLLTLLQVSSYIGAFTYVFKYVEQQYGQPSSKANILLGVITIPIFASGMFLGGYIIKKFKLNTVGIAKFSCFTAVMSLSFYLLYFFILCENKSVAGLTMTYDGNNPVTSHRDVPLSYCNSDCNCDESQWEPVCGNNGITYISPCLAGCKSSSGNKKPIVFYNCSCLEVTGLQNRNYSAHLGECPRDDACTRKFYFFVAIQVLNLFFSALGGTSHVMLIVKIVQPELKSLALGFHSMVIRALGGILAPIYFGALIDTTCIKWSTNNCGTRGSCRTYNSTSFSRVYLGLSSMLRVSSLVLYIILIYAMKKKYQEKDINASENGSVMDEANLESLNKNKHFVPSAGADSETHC
Kind of series: TP_TRANSPORTER: uptake in OATP1B1-expressing HEK293 cells.

The target in series [2] is T1, Solute carrier organic anion transporter family member 1B1. The series is described as follows: TP_TRANSPORTER: inhibition of E1S uptake (SN38 10 u M) in OATP1B1-expressing HEK293 cells. More on the design: scale not given: the % may be the effect or the level left. Particulars: hek293, 10 µM.
The target is the same in series [3]. The series is described as follows: TP_TRANSPORTER: uptake of SN-38 at a concentration of 0.16uL/oocyte in Xenopus laevis oocytes.
For series [4] the target is unchanged. The series is described as follows: TP_TRANSPORTER: uptake in OATP1B1-expressing HEK293 cell.
Series [5] deals with T2, Solute carrier organic anion transporter family member 1B3 (Homo sapiens, UniProt Q9NPD5).
T2 sequence (Q9NPD5 whole entry): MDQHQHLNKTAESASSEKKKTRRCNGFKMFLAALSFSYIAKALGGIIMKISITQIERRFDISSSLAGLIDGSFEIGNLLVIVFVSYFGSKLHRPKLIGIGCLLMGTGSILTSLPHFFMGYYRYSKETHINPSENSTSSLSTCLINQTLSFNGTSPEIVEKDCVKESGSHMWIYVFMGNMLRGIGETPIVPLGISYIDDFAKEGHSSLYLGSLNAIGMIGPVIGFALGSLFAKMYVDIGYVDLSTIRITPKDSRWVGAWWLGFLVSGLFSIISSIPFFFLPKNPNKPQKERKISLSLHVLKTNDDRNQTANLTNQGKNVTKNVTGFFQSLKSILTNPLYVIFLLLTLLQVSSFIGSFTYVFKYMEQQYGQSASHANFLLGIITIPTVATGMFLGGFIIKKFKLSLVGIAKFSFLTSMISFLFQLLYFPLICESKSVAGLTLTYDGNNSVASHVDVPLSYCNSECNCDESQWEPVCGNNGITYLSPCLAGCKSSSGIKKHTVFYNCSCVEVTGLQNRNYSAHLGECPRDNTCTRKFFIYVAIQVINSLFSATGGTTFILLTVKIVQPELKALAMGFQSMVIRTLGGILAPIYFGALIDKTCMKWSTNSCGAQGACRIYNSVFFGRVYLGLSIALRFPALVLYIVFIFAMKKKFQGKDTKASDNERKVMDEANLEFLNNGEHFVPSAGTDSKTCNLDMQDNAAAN
Kind of series: TP_TRANSPORTER: uptake of SN-38 at a concentration of 0.09uL/oocyte in Xenopus laevis oocytes.

Series [6] has as its target T3, Solute carrier organic anion transporter family member 2B1 (Homo sapiens, UniProt O94956).
T3 sequence (O94956 whole entry): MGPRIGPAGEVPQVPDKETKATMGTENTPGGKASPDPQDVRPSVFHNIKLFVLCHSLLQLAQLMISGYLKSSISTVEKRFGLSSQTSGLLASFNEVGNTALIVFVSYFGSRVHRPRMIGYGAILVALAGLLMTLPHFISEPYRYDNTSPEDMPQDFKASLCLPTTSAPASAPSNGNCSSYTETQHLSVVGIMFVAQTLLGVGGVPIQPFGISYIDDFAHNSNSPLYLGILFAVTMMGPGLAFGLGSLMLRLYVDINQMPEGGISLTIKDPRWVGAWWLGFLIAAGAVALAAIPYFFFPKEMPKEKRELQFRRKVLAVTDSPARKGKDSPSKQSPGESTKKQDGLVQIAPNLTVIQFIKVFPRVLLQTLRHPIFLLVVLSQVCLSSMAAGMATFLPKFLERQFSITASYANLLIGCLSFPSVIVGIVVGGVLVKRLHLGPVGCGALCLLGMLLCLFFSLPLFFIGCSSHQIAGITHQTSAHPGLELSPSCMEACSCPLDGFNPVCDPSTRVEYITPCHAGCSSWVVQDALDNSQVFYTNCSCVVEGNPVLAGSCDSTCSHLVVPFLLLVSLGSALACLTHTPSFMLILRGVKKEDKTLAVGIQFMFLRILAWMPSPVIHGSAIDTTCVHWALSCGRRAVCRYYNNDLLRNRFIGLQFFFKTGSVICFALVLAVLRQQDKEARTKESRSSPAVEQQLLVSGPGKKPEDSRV
The series is described as follows: TP_TRANSPORTER: uptake of SN-38 at a concentration of 0.10uL/oocyte in Xenopus laevis oocytes.

In series [7] the target is T1, Solute carrier organic anion transporter family member 1B1. Kind of series: TP_TRANSPORTER: inhibition of E1S uptake (SN38 G 10 u M) in OATP1B1-expressing HEK293 cells. Conditions: hek293, 10 µM.

Consider `CCc1c2c(nc3ccc(O)cc13)-c1cc3c(c(=O)n1C2)COC(=O)[C@]3(O)CC` [7-ETHYL-10-HYDROXYCAMPTOTHECIN], for which the Activity entry in series [1] is “substrate []”; in series [2] it was 50%; in series [3], “substrate [+]”; in series [4] it was “substrate [+]”; in series [5] it was “is not a substrate [-]”; in series [6] it was “is not a substrate [-]”.
With `CCc1c2c(nc3ccc(OC(=O)N4CCC(N5CCCCC5)CC4)cc13)-c1cc3c(c(=O)n1C2)COC(=O)[C@]3(O)CC` [IRINOTECAN], the Activity result in series [4] is “is not a substrate [-]”.
As for `CCc1c2c(nc3ccc(OC[C@@H]4O[C@H](C(=O)O)[C@@H](O)[C@H](O)[C@H]4O)cc13)-c1cc3c(c(=O)n1C2)COC(=O)[C@]3(O)CC`, the Activity result in series [4] was “is not a substrate [-]”; in series [7], “is not an inhibitor [-]”.
